Values of other authors, collected in patent US20150056194A1, “MODIFIED GREEN TEA POLYPHENOLS AND METHODS THEREOF FOR TREATING LIVER DISEASE” (priority 2013, published 2015).

Columns and labels:
[1] = animals receiving tea preparations in cancer prevention studies
influenza = conditions: compared with EGCG

Row | Molecule | blood levels [1] | anti-influenza activity, times more effective than EGCG (influenza) [times]
1 | O=C(O[C@@H]1Cc2c(O)cc(O)cc2O[C@@H]1c1cc(O)c(O)c(O)c1)c1cc(O)c(O)c(O)c1 [EGCG, (−)-Epigallocatechin-3-gallate] | lower than 0.5 μuM | –
2 | EGCG-palmitate | – | 24
